Experimental data as given in patent publication US20130096107A1, “USE OF AMINODIHYDROTHIAZINES FOR THE TREATMENT OR PREVENTION OF DIABETES” (Hoffmann-La Roche Inc., priority 2009, published 2013).

Target: T1, BACE2 (Homo sapiens, UniProt Q9Y5Z0)
T1 construct: BACE2 enzyme ectodomain (derived from plasmid “pET17b-T7-hu proBACE2”); T7 tag; made in house; a pET17b plasmid implies E. coli (own knowledge)
T1 sequence (Q9Y5Z0 63-473 limits assumed): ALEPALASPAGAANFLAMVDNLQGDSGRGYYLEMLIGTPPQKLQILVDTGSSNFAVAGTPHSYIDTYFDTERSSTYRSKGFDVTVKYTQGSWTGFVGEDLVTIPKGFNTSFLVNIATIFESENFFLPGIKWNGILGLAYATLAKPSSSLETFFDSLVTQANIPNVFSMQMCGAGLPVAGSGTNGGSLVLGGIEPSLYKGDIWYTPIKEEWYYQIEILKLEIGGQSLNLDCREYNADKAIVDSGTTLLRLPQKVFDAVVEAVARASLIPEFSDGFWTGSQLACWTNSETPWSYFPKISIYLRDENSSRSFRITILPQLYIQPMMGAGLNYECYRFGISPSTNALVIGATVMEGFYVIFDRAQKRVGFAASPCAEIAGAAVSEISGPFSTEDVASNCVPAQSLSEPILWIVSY
Experiment: Immunofluorescence Resonance Energy Transfer (FRET) assay for BACE2 inhibition
Type: biochemical
Settings: pH 4.5; 5 μM TMEM27-based FRET peptide substrate
Description: BACE2 enzyme ectodomain (derived from plasmid “pET17b-T7-hu proBACE2”) was prepared as described in Ostermann et al., “Crystal Structure of Human BACE2 in Complex with a Hydroxyethylamine Transition-state Inhibitor”, Journal of Molecular Biology 2006, 355, 249-261. The pro-enzyme was stored at 4° C. at a concentration of 70 μg/ml.
The FRET assay was performed essentially as described in Grüninger-Leitch et al., Journal of Biological Chemistry (2002) 277(7) 4687-93 (“Substrate and inhibitor profile of BACE (beta-secretase) and comparison with other mammalian aspartic proteases”). In summary, a peptide is designed that is cleaved by the protease. The peptide is labelled with dabcyl at the N terminus and Lucifer Yellow at the C-terminus, such that for an intact peptide the Lucifer Yellow fluorescence is quenched by the dabcyl. When the peptide is cut by BACE2, the quenching is removed and a fluorescent signal is generated.
The assay was performed as described in Grueninger et al. 2002 at pH 4.5 using a substrate concentration of 5 μM. A FRET peptide based on the TMEM27 sequence was devised. dabcyl—[…]—LucY.
The assay readout is the initial rate of change of fluorescence intensity giving a relative measure of BACE2 activity. Small values correspond to high inhibition and larger values to low inhibition. […] IC50 values were determined using these assay values generated for a range of inhibitor concentrations and the curve fitting software XLfit (IDBS) using the Sigmoidal Dose-Response Model.

Going from `CC[C@@]1(c2cc(NC(=O)c3ccc(Cl)cn3)ccc2F)CCSC(N)=N1` [Example 2, 5-Chloro-pyridine-2-carboxylic acid [3-((S)-2-amino-4-ethyl-5,6-dihydro-4H-[1,3]thiazin-4-yl)-4-fluoro-phenyl]-amide] to `CC[C@@]1(c2cc(NC(=O)c3cc(Cl)ccn3)ccc2F)CCSC(N)=N1` [Example 9, 4-Chloro-pyridine-2-carboxylic acid [3-((S)-2-amino-4-ethyl-5,6-dihydro-4H-[1,3]thiazin-4-yl)-4-fluoro-phenyl]-amide], the IC50 rises from 8 nM to 41000 nM (5100-fold). The first is the more potent here.

Compared with `CC[C@@]1(c2cc(NC(=O)c3ccccn3)ccc2F)CCSC(N)=N1` [Example 3, Pyridine-2-carboxylic acid [3-((S)-2-amino-4-ethyl-5,6-dihydro-4H-[1,3]thiazin-4-yl)-4-fluoro-phenyl]-amide], `CC[C@@]1(c2cc(NC(=O)c3cccc(C)n3)ccc2F)CCSC(N)=N1` [Example 10, 6-Methyl-pyridine-2-carboxylic acid [3-((S)-2-amino-4-ethyl-5,6-dihydro-4H-[1,3]thiazin-4-yl)-4-fluoro-phenyl]-amide] is 49-fold higher in IC50: 1030 nM for the first, 50900 nM for the second.

First: CC[C@@]1(c2cc(NC(=O)c3ccc(Cl)cc3)ccc2F)CCSC(N)=N1 [Example 4, N-[3-((S)-2-Amino-4-ethyl-5,6-dihydro-4H-[1,3]thiazin-4-yl)-4-fluoro-phenyl]-4-chloro-benzamide]
Second: CC[C@@]1(c2cc(NC(=O)c3ccc(C)s3)ccc2F)CCSC(N)=N1 [Example 16, 5-Methyl-thiophene-2-carboxylic acid [3-((S)-2-amino-4-ethyl-5,6-dihydro-4H-[1,3]thiazin-4-yl)-4-fluoro-phenyl]-amide]
The IC50 of the first is 4-fold higher: 2700 nM for the first, 667 nM for the second. The second is the more potent here.

Going from `CC[C@@]1(c2cc(NC(=O)c3cnc(Cl)cn3)ccc2F)CCSC(N)=N1` [Example 5, 5-Chloro-pyrazine-2-carboxylic acid [3-((S)-2-amino-4-ethyl-5,6-dihydro-4H-[1,3]thiazin-4-yl)-4-fluoro-phenyl]-amide] to `CC[C@@]1(c2cc(NC(=O)c3ncc(Cl)cn3)ccc2F)CCSC(N)=N1` [Example 6, 5-Chloro-pyrimidine-2-carboxylic acid [3-((S)-2-amino-4-ethyl-5,6-dihydro-4H-[1,3]thiazin-4-yl)-4-fluoro-phenyl]-amide], the IC50 falls from 1000 nM to 440 nM (2.3-fold).

First: CC[C@@]1(c2cc(NC(=O)c3ncccc3C(F)(F)F)ccc2F)CCSC(N)=N1 [Example 7, 3-Trifluoromethyl-pyridine-2-carboxylic acid [3-((S)-2-amino-4-ethyl-5,6-dihydro-4H-[1,3]thiazin-4-yl)-4-fluoro-phenyl]-amide]
Second: CC[C@@]1(c2cc(NC(=O)c3nc(Cl)ccc3C(F)(F)F)ccc2F)CCSC(N)=N1 [Example 12, 6-Chloro-3-trifluoromethyl-pyridine-2-carboxylic acid [3-((S)-2-amino-4-ethyl-5,6-dihydro-4H-[1,3]thiazin-4-yl)-4-fluoro-phenyl]-amide]
The IC50 of the first is 6.1-fold lower: 5460 nM for the first, 33500 nM for the second.

Going from `CC[C@@]1(c2cc(NC(=O)c3ncccc3-c3ccccc3)ccc2F)CCSC(N)=N1` [Example 8, 3-Phenyl-pyridine-2-carboxylic acid [3-((S)-2-amino-4-ethyl-5,6-dihydro-4H-[1,3]thiazin-4-yl)-4-fluoro-phenyl]-amide] to `CC[C@@]1(c2cc(NC(=O)c3cc4ccccc4cn3)ccc2F)CCSC(N)=N1` [Example 13, Isoquinoline-3-carboxylic acid [3-((S)-2-amino-4-ethyl-5,6-dihydro-4H-[1,3]thiazin-4-yl)-4-fluoro-phenyl]-amide], the IC50 rises from 4930 nM to 9100 nM (1.8-fold).

Compared with `CC[C@@]1(c2cc(NC(=O)c3nc(Cl)ccc3Cl)ccc2F)CCSC(N)=N1` [Example 11, 3,6-Dichloro-pyridine-2-carboxylic acid [3-((S)-2-amino-4-ethyl-5,6-dihydro-4H-[1,3]thiazin-4-yl)-4-fluoro-phenyl]-amide], `CC[C@@]1(c2cc(NC(=O)c3nccc4ccsc34)ccc2F)CCSC(N)=N1` [Example 14, Thieno[2,3-c]pyridine-7-carboxylic acid [3-((S)-2-amino-4-ethyl-5,6-dihydro-4H-[1,3]thiazin-4-yl)-4-fluoro-phenyl]-amide] is 7.5-fold lower in IC50: 23000 nM for the first, 3080 nM for the second. The second is the more potent here.

Going from `CC[C@@]1(c2cc(NC(=O)c3cc4ccccc4s3)ccc2F)CCSC(N)=N1` [Example 15, Benzo[b]thiophene-2-carboxylic acid [3-((S)-2-amino-4-ethyl-5,6-dihydro-4H-[1,3]thiazin-4-yl)-4-fluoro-phenyl]-amide] to `CC[C@@]1(c2cc(NC(=O)c3csc(C)n3)ccc2F)CCSC(N)=N1` [Example 19, 2-Methyl-thiazole-4-carboxylic acid [3-((S)-2-amino-4-ethyl-5,6-dihydro-4H-[1,3]thiazin-4-yl)-4-fluoro-phenyl]-amide], the IC50 rises from 916 nM to 33600 nM (37-fold). The first is the more potent here.

First: CC[C@@]1(c2cc(NC(=O)c3ccn(C)n3)ccc2F)CCSC(N)=N1 [Example 17, 1-Methyl-1H-pyrazole-3-carboxylic acid [3-((S)-2-amino-4-ethyl-5,6-dihydro-4H-[1,3]thiazin-4-yl)-4-fluoro-phenyl]-amide]
Second: CC[C@@]1(c2cc(NC(=O)c3coc(C)n3)ccc2F)CCSC(N)=N1 [Example 18, 2-Methyl-oxazole-4-carboxylic acid [3-((S)-2-amino-4-ethyl-5,6-dihydro-4H-[1,3]thiazin-4-yl)-4-fluoro-phenyl]-amide]
The IC50 of the first is 4.5-fold higher: 2140 nM for the first, 475 nM for the second. The second is the more potent here.
